The values below are quoted from earlier work in patent US20240238221A1, “[…] TREATING NEUROPATHIC PAIN IN COVID-19 PATIENTS” (Grünenthal GmbH, priority 2021, published 2024).

For data set [1] the following is noted: at analgesic doses vs. Morphine.
The conditions of data set [2]: in the investigated dose ranges; vs. morphine, oxycodone or hydromorphone.
Data set [3] deals with UGT1A6, UGT1A9 and UGT2B7. As to conditions: mediated via UGT mainly UGT1A6, UGT1A9 and UGT2B7 isoforms.
The next data set deals with serotonin reuptake. The note with it: unlike tramadol.

For `CC[C@@H](c1cccc(O)c1)[C@@H](C)CN(C)C` [Tapentadol], the immunosuppressive activity result in data set [1] is given as “lower immunosuppressive activity”. Also, the analgesic efficacy entry in data set [2] is reported as “comparable to that of typical strong opioids”. Besides, the major elimination pathway entry in data set [3] is recorded as “conjugation with glucuronic acid”. In addition, the “risk of drug-drug interactions at the CYP450 level” value in the data set on CYP450 is reported as “low risk”. For the same compound, the serotonin reuptake inhibition entry in the data set with serotonin reuptake is reported as “only weak serotonin reuptake inhibition”.
